Laboratory results: US11358969B2, “Indole AHR inhibitors and uses thereof” (Ikena Oncology, Inc., priority 2017, dated 2022)

System: CD3/CD28 activated human T cells
Experiment: T-Cell Study with I-70 (Example 1F)
Type: cell-based
Conditions: human T cells activated with CD3/CD28 tetramer, 24 hours
Description: Human T cells were isolated by CD3 negative selection after isolation of PBMCs from blood of human donors via ficoll density gradient centrifugation. One million T cells were activated with 25 uL of CD3/CD28 tetramer (Stemcell) in the presence or absence of I-70 for 24 hours, after which media was removed and stored at −80 C for later cytokine analysis. Cells were then washed 2× with PBS, before isolating RNA according to the manufacturer's instructions for the RNAeasy mini kit (Qiagen).
RNA was converted to cDNA using VILO-IV RT mastermix (Thermofisher), and q-RT-PCR was performed to determine levels of IL-22 (Hs01574154_m1), Cyp1a1 (Hs01054797_g1), and GAPDH (Hs00266705_g1). Data was analyzed using the ddCT method whereby each sample is first normalized to GAPDH housekeeping gene before being normalized to control treatment.
Cytokine levels were determined utilizing the mesoscale discovery (MSD) platform (K15067L-2) and MSD analysis software according to the manufacturer's instructions. IL-22 protein levels are decreased and pro-inflammatory IL-2 protein levels are increased by treatment with I-70, as shown in FIG. 2.

## Cc1cnn2c(NCCc3c[nH]c4ccccc34)cc(-c3cncc(F)c3)nc12 [I-70, 5-(5-Fluoro-3-pyridyl)-N-[2-(1H-indol-3-yl)ethyl]-3-methyl-pyrazolo[1,5-a]pyrimidin-7-amine]
MSD platform, FIG. 2
  IL-22 protein levels: decreased
  pro-inflammatory IL-2 protein levels: increased
q-RT-PCR, FIG. 1
  IL22 RNA expression levels: inhibited
  cyp1a1 RNA expression levels: inhibited
